Experiments:
[1] = tested on: C. difficile strain ATCC43255 toxin A; assay: Toxin A production in high cell density stationary phase cultures (ELIFA); assay type: cell-based; conditions: 4 day old stationary phase cultures
Procedure: C. difficile strain ATCC43255 was grown and maintained anaerobically on CDC anaerobe agar (Remel, Lenexa, Kans.). To test the effect of antibacterial agents on growth, cells were grown anaerobically for 40 h at 35° C. in 96-well brain heart infusion (BHI) broth cultures, with an initial inoculum of 10^6 CFU/mL. To test the effect of antibacterial agents on toxin production at high C. difficile cell densities, the cells were grown anaerobically for 24 h at 35° C. in 96-well brain heart infusion (BHI) broth cultures. Spent medium was then replaced with fresh broth containing MetRS inhibitors and control agents at a concentration range of 0.015-16 μg/mL. After 4 days, growth and cell viability were monitored by optical density measurements at 595 nm and by culture on CDC anaerobe agar, respectively. Culture supernatants were collected, and toxin A was detected by ELIFA (enzyme-linked immuno-flow assay) using an anti toxin A monoclonal antibody (Novus Biologicals, Centennial, Colo.).

[2] = tested on: C. difficile; assay: C. difficile-infected hamster survival study; assay type: in vivo, hamsters
Procedure: Animal studies were performed to determine the efficacy of MetRS inhibitors for treating C. difficile-infections. The MetRS inhibitors tested were two compounds of formula (II), 5-[3-((R)-6,8-Dibromo-chroman-4-ylamino)-propylamino]-4H-thieno[3,2-b]pyridine-7-one (both racemic mixture and the R enantiomer) and 5-[3-((R)-8-Bromo-6-chloro-chroman-4-ylamino)-propylamino]-4H-thieno[3,2-b]pyridin-7-one. Also tested was a compound of formula (IV), 2-(3-{3,5-Dibromo-2-[2-(4-methyl-thiazol-5-yl)-ethoxy]-benzylamino}-propylamino)-1H-quinolin-4-one.
Results were compared to C. difficile-infected hamsters treated with the conventional antibiotic, vancomycin. Infected hamsters were treated with either a solution or suspension of a MetRS inhibitor at 5 to 50 mg/kg or vancomycin at 2.5, 5 or 25 mg/kg. There were eight hamsters per group with the final endpoint of the experiment being survival. Expired hamsters were examined for GI condition.

[3] = tested on: clinical isolates of C. difficile; assay: Sporulation of C. difficile clinical isolates; assay type: cell-based

Cc1ncsc1CCOc1c(Br)cc(Br)cc1CNCCCNc1cc(=O)c2sccc2[nH]1
concentration inhibiting toxin production [1]: 0.25 µg/mL

Cl.Cl.Cl.O=c1cc(NCCCNC2CCNc3c(Br)cc(Br)cc32)[nH]c2ccsc12 (stereo not drawn) [5-[3-(6,8-Dibromo-1,2,3,4-tetrahydro-quinolin-4-ylamino)-propylamino]-4H-thieno[3,2-b]pyridin-7-one tri-hydrochloride]
concentration inhibiting toxin production [1]: 0.25 µg/mL

O=c1cc(NCCCNC2CCOc3c(Br)cc(Br)cc32)[nH]c2ccsc12 (stereo not drawn) [5-[3-(6,8-Dibromo-chroman-4-ylamino)-propylamino]-4H-thieno[3,2-b]pyridin-7-one]
concentration inhibiting toxin production [1]: 0.25 µg/mL

O=c1cc(NCCCN[C@@H]2CCOc3c(Br)cc(Br)cc32)[nH]c2ccsc12 [5-[3-((R)-6,8-Dibromo-chroman-4-ylamino)-propylamino]-4H-thieno[3,2-b]pyridine-7-one]
efficacy ranking among tested MetRS inhibitors ([2]; infected hamsters, survival): best efficacy
spores (ratio of spores to total cells) ([3]; 0.25×MIC, 96 hours, all strains): < 2%
spores (ratio of spores to total cells) ([3]; 0.5×MIC, 96 hours, all strains): < 1%

Cl.Cl.O=c1cc(NCCCN[C@@H]2CCOc3c(Br)cc(Br)cc32)[nH]c2ccsc12 [R-(+)-5-[3-(6,8-Dibromo-chroman-4-ylamino)-propylamino]-4H-thieno[3,2-b]pyridin-7-one di-hydrochloride]
concentration inhibiting toxin production [1]: 0.25 µg/mL

Cc1ncc([N+](=O)[O-])n1CCO [metronidazole, reference compound]
spores (ratio of spores to total cells) ([3]; subMIC concentrations, all tested strains): up to 100%

CN[C@H](CC(C)C)C(=O)N[C@H]1C(=O)N[C@@H](CC(N)=O)C(=O)N[C@H]2C(=O)N[C@H]3C(=O)N[C@H](C(=O)N[C@H](C(=O)O)c4cc(O)cc(O)c4-c4cc3ccc4O)[C@H](O)c3ccc(c(Cl)c3)Oc3cc2cc(c3O[C@@H]2O[C@H](CO)[C@@H](O)[C@H](O)[C@H]2O[C@H]2C[C@](C)(N)[C@H](O)[C@H](C)O2)Oc2ccc(cc2Cl)[C@H]1O [vancomycin, reference compound]
survival ([2]; Day 28, vancomycin treatment (2.5, 5 or 25 mg/kg)): 0-10%

Reference: patent US8658670B2 (Crestone, Inc., priority 2006, dated 2014)
